For 2 compounds, IC50 results are on record in ChEMBL document CHEMBL1127716, “-Ketothiazole inhibitors of prolyl endopeptidase” (Bioorg Med Chem Lett, 1994).

In this assay the target is Prolyl endopeptidase (Sus scrofa, UniProt P23687). Kind of assay: Compound was evaluated for the inhibition of Prolyl endopeptidase (PEP) from pig kidney using Z-Gly-Pro-p-nitroanilide as substrate.
Sequence of Prolyl endopeptidase (P23687 whole entry): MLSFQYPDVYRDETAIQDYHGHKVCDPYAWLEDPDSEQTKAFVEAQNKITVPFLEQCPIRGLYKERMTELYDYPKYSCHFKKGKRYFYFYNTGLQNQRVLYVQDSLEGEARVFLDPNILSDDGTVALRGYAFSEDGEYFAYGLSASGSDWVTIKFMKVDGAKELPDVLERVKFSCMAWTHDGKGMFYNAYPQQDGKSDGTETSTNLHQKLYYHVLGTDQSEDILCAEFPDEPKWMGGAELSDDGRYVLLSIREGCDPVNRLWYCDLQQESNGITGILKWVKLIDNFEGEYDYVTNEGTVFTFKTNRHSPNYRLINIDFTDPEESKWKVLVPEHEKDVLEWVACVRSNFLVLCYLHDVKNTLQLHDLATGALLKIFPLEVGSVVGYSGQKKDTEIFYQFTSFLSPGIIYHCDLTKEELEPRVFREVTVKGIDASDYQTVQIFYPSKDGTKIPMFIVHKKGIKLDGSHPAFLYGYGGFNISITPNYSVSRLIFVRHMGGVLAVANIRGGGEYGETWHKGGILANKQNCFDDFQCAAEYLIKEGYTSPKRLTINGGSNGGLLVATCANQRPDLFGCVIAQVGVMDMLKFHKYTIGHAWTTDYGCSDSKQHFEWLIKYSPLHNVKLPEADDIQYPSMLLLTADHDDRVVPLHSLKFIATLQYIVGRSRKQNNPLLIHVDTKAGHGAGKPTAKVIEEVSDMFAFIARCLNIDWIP

In general, IC50 refers to the point on the concentration scale where inhibition reaches its midpoint. `O=C(c1cscn1)[C@@H]1CCCN1C(=O)[C@@H]1CCCN1C(=O)CCCc1ccccc1` gave an IC50 of 5.9 nM.

Take `CCOC(=O)C(=O)[C@@H]1CCCN1C(=O)[C@@H]1CCCN1C(=O)CCCc1ccccc1`: inhibition was half-maximal at 9.6 nM (IC50).
